Source: patent publication US10759796B2, “CXCR4 inhibitors and uses thereof” (X4 Pharmaceuticals, Inc., priority 2016, dated 2020)
pIC50: −log10 of the molar value.

Experiments:
[1] = target: CXCR-4 transfected U87 cell line (U87.CXCR4) (Homo sapiens (Human), UniProt P61073); test: Intracellular CXCL-12-induced calcium mobilization assay (FLIPR); assay type: cell-based; conditions: U87.CXCR4 cells, CXCL-12 25-50 ng/mL; read-out: IC50 CXCL-12 Ca2+ flux U87.CXCR4+
Experimental: Example 28: REGA Screening Assay
Intracellular CXCL-12-Induced Calcium Mobilization Assay
Intracellular calcium mobilization induced by chemokines or chemokine-derived peptides were evaluated using a calcium responsive fluorescent probe and a FLIPR system. The CXCR-4 transfected U87 cell line (U87.CXCR4) cells were seeded in gelatine-coated black-wall 96-well plates at 20,000 cells per well and incubated for 12 hours. Cells were then loaded with the fluorescent calcium probe Fluo-2 acetoxymethyl at 4 μM final concentration in assay buffer (Hanks' balanced salt solution with 20 mM HEPES buffer and 0.2% bovine serum albumin, pH 7.4) for 45 min at 37° C. The intracellular calcium mobilization induced by the CXCL-12 (25-50 ng/mL) was then measured at 37° C. by monitoring the fluorescence as a function of time in all the wells simultaneously using a fluorometric imaging plate reader (FLIPR Tetra, Molecular Devices).

[2] = target: Jurkat cells expressing CXCR4 (Homo sapiens (Human), UniProt P61073); test: Chemokine (CXCL12-AF647) binding inhibition assay; conditions: CXCL12-AF647 25 ng/mL, read-out: IC50 CXCL-12 binding Jurkat
Chain of Jurkat cells expressing CXCR4 (P61073 whole entry): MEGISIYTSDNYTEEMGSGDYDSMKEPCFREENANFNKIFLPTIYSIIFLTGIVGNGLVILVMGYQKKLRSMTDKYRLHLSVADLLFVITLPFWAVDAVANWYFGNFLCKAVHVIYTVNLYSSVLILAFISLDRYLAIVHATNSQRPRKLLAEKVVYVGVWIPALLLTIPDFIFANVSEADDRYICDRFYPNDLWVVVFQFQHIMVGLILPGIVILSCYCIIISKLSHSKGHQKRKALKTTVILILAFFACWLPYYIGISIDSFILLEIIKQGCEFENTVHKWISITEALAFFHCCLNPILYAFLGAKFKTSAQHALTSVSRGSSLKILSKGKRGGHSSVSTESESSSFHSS
Experimental: Chemokine (CXCL12-AF647) Binding Inhibition Assay
Jurkat cells expressing CXCR4 were washed once with assay buffer (Hanks' balanced salt solution with 20 mM HEPES buffer and 0.2% bovine serum albumin, pH 7.4) and then incubated for 15 min at room temperature with the test compounds diluted in assay buffer at dose-dependent concentrations. Subsequently, CXCL12-AF647 (25 ng/mL) was added to the compound-incubated cells. The cells were incubated for 30 min at room temperature. Thereafter, the cells were washed twice in assay buffer, fixed in 1% paraformaldehyde in PBS, and analyzed on the FL4 channel of a FACSCalibur flow cytometer equipped with a 635-nm red diode laser (Becton Dickinson, San Jose, Calif., USA).
The percentages of inhibition of CXCL12-AF647 binding were calculated according to the formula: [1−((MFI−MFINC)/(MFIPC−MFINC))]×100 where MFI is the mean fluorescence intensity of the cells incubated with CXCL12-AF647 in the presence of the inhibitor, MFINC is the mean fluorescence intensity measured in the negative control (i.e., autofluorescence of unlabeled cells), and MFIPC is the mean fluorescence intensity of the positive control (i.e., cells exposed to CXCL12-AF647 alone).

[3] = in vitro; conditions: human, Caco-2, pH 7.4
Experimental: Example 28: Caco-2 Permeability Assay
The goal of this assay was to evaluate the intestinal absorption potential of drug candidates using Caco-2 cell lines.
1. Prewarm Prewarm HBSS Buffer in 37° C. water bath
2. Sonicate Take compounds from −20° C., sonicate for a few minutes (no less than 1 minute)
HBSS buffer with 0.3% DMSO and 5 μM LY: add 150 μL DMSO and 50 μL LY (5 mM) into 50 ml HBSS buffer (pH 7.4).
HBSS buffer with 0.1% DMSO and 5 μM LY: add 50 μL DMSO and 50 μL LY (5 mM) into 50 mL HBSS buffer (pH 7.4).
HBSS buffer with 0.3% DMSO: add 150 μL DMSO into 50 ml HBSS buffer (pH 7.4).
HBSS buffer with 0.1% DMSO: add 50 μL DMSO into 50 ml HBSS buffer (pH 7.4).
Receiver Solution Buffer:
Prepare HBSS buffer with 0.4% DMSO: add 200 μL DMSO into 50 ml HBSS buffer (pH 7.4).
Prepare HBSS buffer with 0.4% DMSO and 5 μM LY: add 200 μL DMSO and 50 μL LY (5 mM) into 50 ml HBSS buffer (pH 7.4).
4. Measure TEER Take cell culture plate out of incubator, wash the cell monolayers with HBSS buffer, and then measure TEER values at Rm temperature. 5. Centrifuge Centrifuge the compound solution (from step 3) at 4000 rpm for 5 min before loading to donor chambers. 6. Dosing Add solution based on the volumes listed in the following table (make sure to take extra 100 μL of donor sample for TO as Backup).
7. Apical LYT0 Samples To determine LY concentration in the apical chember, take 100 μL sample from apical chambers into an opaque plate for LYT0. 8. Prewarm Prewarm apical and basolateral plates at 37° C. for about 5 min, then begin transport by placing the apical plate onto basolateral plate. 9. Incubation Keep the plates in incubator at 37° C. for 90 min. 10. Standard Curve Preparation
For 300 μM compound solution, add 6 μL of compound stock solution into 192 μL of MeOH/H2O (1:1).
Prepare Working Solution in MeOH/H2O (1:1)
3 μL (20×)+57 μL of 0.4% DMSO HBSS+60 μL ACN with IS (Osalmid or Imipramine) - - - 120 μL (1×)
11. Transport Termination Separate the apical plate from the basolateral plate after 90-min incubation.
12. Measure LY Take 100 μL samples from basolateral plate to an opaque plate as LYT90.
13. Measure LY concentrations for LYT0 and LYT90 by Fluorometer (at excitation of 485 nm/emission of 535 nm).
Study details: Test concentration 10 μM
Test systems: Caco-2/HBSS solution
Incubation conditions: 0, 90 min at 37° C.
Sample size: Duplicates (n=2)
Bioanalytical method: LC-MS/MS
For Millicell-24 Cell Culture Plates: surface area of the membrane=0.7 cm^2, VA=0.8 mL (A-to-B) or 0.4 mL (B-to-A)
1. Papp values were calculated based on calculated concentrations.
The compound numbers correspond to the compound numbers in Table 1.

Chain of CXCR-4 transfected U87 cell line (U87.CXCR4) (P61073 whole entry): as above

Structure (SMILES)	pIC50 [1]	pIC50 [2]	Papp A→B at 90 min, 10 μM [3]	Papp B→A at 90 min, 10 μM [3]	efflux ratio at 90 min, 10 μM [3]
Cc1cccnc1[C@@H]1CCC[C@H](c2nc3ccccn3c2COC2CCN(C)CC2)N1C [Compound I-62]	≤ 6.00	6.00 to 7.00	0.1 to 10 ×10⁻⁶ cm/s	10 to 30 ×10⁻⁶ cm/s	> 30
Cc1cccnc1[C@@H]1CCC[C@H](c2nc3ccccn3c2COC2CCCN(C)C2)N1C (stereo partly drawn) [Compound I-63]	6.00 to 7.00	7.00 to 11.00	0.1 to 10 ×10⁻⁶ cm/s	10 to 30 ×10⁻⁶ cm/s	10 to 30
Cc1cccnc1[C@@H]1CCC[C@H](c2cn3c(N4CCN(C5CC5)CC4)cccc3n2)N1C [Compound I-66]	6.00 to 7.00	7.00 to 11.00	10 to 30 ×10⁻⁶ cm/s	10 to 30 ×10⁻⁶ cm/s	0.1 to 10
Cc1cccnc1[C@@H]1CCC[C@H](c2nc3cccc(N4CCN(C5CC5)CC4)n3c2Br)N1C [Compound I-67]	6.00 to 7.00	7.00 to 11.00	0.1 to 10 ×10⁻⁶ cm/s	0.1 to 10 ×10⁻⁶ cm/s	0.1 to 10
Cc1cccnc1[C@@H]1CCC[C@H](c2cn3c(N4CC5CCC(C4)N5C)cccc3n2)N1C [Compound I-68]	7.00 to 11.00	7.00 to 11.00	0.1 to 10 ×10⁻⁶ cm/s	10 to 30 ×10⁻⁶ cm/s	10 to 30
Cc1cccnc1[C@@H]1CCC[C@H](c2cn3c(N4C5CCC4CN(C)C5)cccc3n2)N1C [Compound I-69]	7.00 to 11.00	7.00 to 11.00	0.1 to 10 ×10⁻⁶ cm/s	10 to 30 ×10⁻⁶ cm/s	0.1 to 10
Cc1cccnc1[C@@H]1CCC[C@H](c2nc3ccccn3c2CN2CCOCC2)N1C [Compound I-73]	≤ 6.00	6.00 to 7.00	10 to 30 ×10⁻⁶ cm/s	10 to 30 ×10⁻⁶ cm/s	0.1 to 10
CCN1CCN(c2cccc3nc([C@H]4CCC[C@@H](c5ncccc5C(C)C)N4C)c(CO)n23)CC1 [Compound I-75]	≤ 6.00	6.00 to 7.00	0.1 to 10 ×10⁻⁶ cm/s	10 to 30 ×10⁻⁶ cm/s	0.1 to 10
CN1CCN(c2cccc3nc([C@H]4CCC[C@@H](c5ncccc5C(F)(F)F)N4C)cn23)CC1 [Compound I-80]	6.00 to 7.00	7.00 to 11.00	0.1 to 10 ×10⁻⁶ cm/s	0.1 to 10 ×10⁻⁶ cm/s	0.1 to 10

Other lines, results leading:

pIC50 [1]	pIC50 [2]	Papp A→B at 90 min, 10 μM [3]	Papp B→A at 90 min, 10 μM [3]	efflux ratio at 90 min, 10 μM [3]	Structure (SMILES)
7.00 to 11.00	7.00 to 11.00	0.1 to 10 ×10⁻⁶ cm/s	10 to 30 ×10⁻⁶ cm/s	0.1 to 10	CCN1CCN(c2cccc3nc([C@H]4CCC[C@@H](c5ncccc5C)N4C)c(COC(C)C)n23)CC1 [Compound I-60]
7.00 to 11.00	7.00 to 11.00	0.1 to 10 ×10⁻⁶ cm/s	10 to 30 ×10⁻⁶ cm/s	0.1 to 10	CCN1CCN(c2cccc3nc([C@H]4CCC[C@@H](c5ncccc5C)N4C)c(CO)n23)CC1 [Compound I-61]
7.00 to 11.00	7.00 to 11.00	0.1 to 10 ×10⁻⁶ cm/s	10 to 30 ×10⁻⁶ cm/s	10 to 30	Cc1cccnc1[C@@H]1CCC[C@H](c2cn3c(N4CCN(C)CC4)ccc(N)c3n2)N1C [Compound I-76]
7.00 to 11.00	7.00 to 11.00	10 to 30 ×10⁻⁶ cm/s	> 30 ×10⁻⁶ cm/s	0.1 to 10	Cc1cccnc1[C@@H]1CCC[C@H](c2cn3c(N4CCN5CCCC5C4)cccc3n2)N1C (stereo partly drawn) [Compound I-77]
7.00 to 11.00	7.00 to 11.00	0.1 to 10 ×10⁻⁶ cm/s	10 to 30 ×10⁻⁶ cm/s	> 30	Cc1cccnc1[C@@H]1CCC[C@H](c2cn3c(N4CCC(N(C)C)CC4)cccc3n2)N1C [Compound I-78]
7.00 to 11.00	7.00 to 11.00	0.1 to 10 ×10⁻⁶ cm/s	10 to 30 ×10⁻⁶ cm/s	0.1 to 10	CN1CCN(c2cccc3nc([C@H]4CCC[C@@H](c5ncccc5C5CC5)N4C)cn23)CC1 [Compound I-79]
